Data from patent publication US11730810B2, “Composition comprising an antigen and a substituted imidazo[1,2-a]pyrimidine for enhancing human immune response” (Children's Medical Center Corporation, priority 2017, dated 2023).

Columns and labels:
THP1-Lucia cells = experiment: NF-kB-induced Luminescence Assay in THP1-Lucia cells; format: cell-based, human; details: in comparison to positive control R848, N=4
Protocol: (FIG. 5A) Human adult PBMCs were stimulated for 18 hours with the positive control compound R848 or compound 037 and its analogs at 33 μM. Production human TNF was measured in cell-free supernatants by ELISA (N=5). […] Results are shown as the median, the 25th and 75th percentiles (boxes) and the 5th and 95th percentiles (whiskers). **p<0.01 determined by repeated measure one-way ANOVA with Dunnett's multiple comparison test on log-transformed data and comparing each compound with DMSO (control condition).
THP-1 Cell Line and Culture Conditions. The THP1-Lucia™ cell line was obtained from Invivogen (San Diego, Calif.). THP1-Lucia cells, which are human monocytic cells derived from the blood of a child with leukemia, contain an NF-kB-inducible Luc reporter construct. This allows NF-kB activation to be measured by quantifying the luminescence from the secreted luciferase enzyme. THP1-Lucia cells were cultured in RPMI 1640 supplemented with 10% non-heat inactivated fetal bovine serum (FBS), 10 mM HEPES, 1.0 mM sodium pyruvate, 50 ug/ml Pen-Strep, and 100 ug/mL Normocin™. Once cultured, the cells were stored in a 37° C. incubator with 5% CO2 and a humidified atmosphere. […]
NF-kB-induced Luminescence Assay. […] Immediately after adding the substrate, the luminescence was read using a PerkinElmer Envision plate reader.

[1] = system: primary human blood mononuclear cells (PBMC); experiment: TNF AlphaLISA screen on primary human PBMCs; format: cell-based; details: hit = robust Z score >2 in both duplicates and in at least 2 of 3 donors
Protocol: To identify immunomodulators/adjuvants that robustly activate human immune cells, ˜200,000 small molecules were tested against THP1 NF-κB reporter cells in a screen. As there is evidence that cell culture lines such as THP-1 cells may not model responses of natural primary human leukocytes, smaller-scale novel high throughput screening methodology was also employed, in which 9,000 commercially available compounds (focusing on small molecule library plates that had relatively high # of hits form the THP-1 screen) were screened using primary human blood mononuclear cells (PBMC) from three different adult human donors (TNFαLISA Assay) (FIGS. 1A-1C).
TNF AlphaLISA screen was comprised of three parts: 1) human peripheral blood collection and PBMC isolation—human adult peripheral blood was collected with written consent. PBMCs were isolated from the blood using Ficoll density gradient. […]
Based on antibody-coated fluorometric excitation/emission beads, the Alpha technology (PerkinElmer) enables the detection and screening of target molecules, in this case TNFα, in a no-wash, highly sensitive, quantitative assay compatible with high throughput screening.
TNFαLISA Assay. […] Viability was assessed by trypan blue staining and cells were then resuspended to 6.67×10^5 viable cells/mL in DMEM with 10% autologous plasma. […]

human adult PBMCs [2] = experiment: 9-plex multiplex cytokine assay after stimulation of adult PBMCs; format: cell-based; details: 0.1 μM-33 μM, 18 hours, 10% autologous plasma, N=4; compared with R848
Protocol: Shown is a 9-plex multiplex cytokine assay after stimulation of adult peripheral blood mononuclear cells (PBMCs) with compound 037 or R848 at four different concentrations (0.1 μM-33 μM). Radar plots of immune polarizing cytokine production from human adult PBMCs stimulated for 18 hours in 10% autologous plasma, represented as fold-change over RPMI unstimulated control (N=4).
(§1) ELISAs and Multiplex-Analyte Assays. Supernatants derived from human PBMCs and DC stimulations were assayed by ELISA for TNF (ThermoFisher Scientific; Waltham, Mass., USA). Cytokine and chemokine expression profiles (e.g., IFNγ, IL-10, IL-12 (p70), IL-1β, IL-6, IL-8, MIP-1α/CCL3, TNF and GM-CSF) in cell culture supernatants were measured using a customized 9-plex Milliplex® Human Th17 Magnetic Bead Panel according to the manufacturer's instructions (Millipore, Chicago, Ill., USA). Assays were read and analyzed on the Luminex® 100/200™ System and xPOTENT® software (Luminex, Austin, Tex.). A minimum threshold was set at the minimum detectable concentration for each individual assay, defined as three standard deviations above the mean background.

[3] = system: Human adult and elderly PBMCs; experiment: Stimulation of adult and elderly PBMCs, TNF and IL-1β by ELISA; format: cell-based
Protocol: (FIG. 2A) Human adult (top) and elderly (bottom) PBMCs stimulated for 18 hours with the TLR7/8 agonist R848 and 24 confirmed hit compounds from TNF AlphaLISA screen. TNF (left panels) and IL-1β (right panels) were assessed in cell-free supernatants by ELISA. Data are shown as median and interquartile range of N=5.
as §1
In vitro PBMC stimulation. PBMCs were isolated from blood using a Ficoll density gradient. PBMCs either used fresh or stored at 5×10^7 cells per vial in 1 mL RPMI containing 20% autologous plasma and 10% DMSO at −80° C. until use. […]

mouse splenocytes = experiment: Splenocyte in vitro stimulation, murine IL-6 by ELISA; format: cell-based, C57BL/6 mice; details: 33 μM, 18 hours
human adult PBMCs [4] = experiment: In vitro PBMC stimulation, TNF production by ELISA (Table 1); format: cell-based; details: 18 hours
Protocol: (§2) Human adult PBMCs were stimulated for 18 hours with compound 037 and its analogs at 33 μM. Production of human TNF was assessed in cell-free supernatants by ELISA. Results are shown as the median, the 25th and 75th percentiles (boxes) and the 5th and 95th percentiles (whiskers) and expressed as percentage TNF production (TNF %) as compared to R848 (FIG. 6A) or TNF concentration in ng/ml (FIG. 6B) (N=3-5). **p<0.01 determined by repeated measure one-way ANOVA with Dunnett's multiple comparison test on log-transformed data and comparing each compound with DMSO (control condition).
as §2, with “7A)” for “6A)”, “7B) (N=5). Analogs are ranked left to right by TNF % (compound 037 on the far left). Compound 037 analogs have been classified in the following categories according to TNF %: high activity—class A: TNF %>15%; medium activity—class B: 1%<TNF %≤15%; low activity—class C: TNF %≤1%.” for “6B) (N=3-5).”
Table 1 provides the activity of exemplary compounds on stimulating TNF production in PBMCs as compared to the benchmark compound R848. Specifically, TNF production was measured by ELISA after stimulation of adult PBMCs with compound 037 analog family or the compound R848 at 33 μM for 18 hours. […]
ELISAs and Multiplex-Analyte Assays. […] Cytokine and chemokine expression profiles (e.g., IFNγ, IL-10, IL-12 (p70), IL-1β, IL-6, IL-8, MIP-1α/CCL3, TNF and GM-CSF) in cell culture supernatants were measured using a customized 9-plex Milliplex® Human Th17 Magnetic Bead Panel according to the manufacturer's instructions (Millipore, Chicago, Ill., USA). […]

Structure (SMILES): CCC(C(=O)Nc1cc(-c2cn3cccnc3n2)ccc1C)c1ccccc1 (stereo not drawn) [Compound 37]
- NF-κB-driven expression of luciferase (THP1-Lucia cells): little activity
- hit in PBMC TNFαLISA screen [1]: identified
- cytokine response (9-plex), fold-change over RPMI unstimulated control (human adult PBMCs [2]): broad concentration-dependent cytokine response
- induction of TNF and IL-1β ([3]; adult and elderly PBMCs stimulated for 18 hours, N=5): induce TNF and IL-1β
- potency rank as inducer of innate immune cytokines among 24 confirmed hits ([3]; adult and elderly PBMCs, 18 hours): most potent inducers of innate immune cytokines

Structure (SMILES): Cc1cnc2nc(-c3ccc(C)c(NC(=O)c4ccccc4C(F)(F)F)c3)cn2c1 [FRF-02-144-3, N-(2-Methyl-5-(6-methylimidazo[1,2-a]pyrimidin-2-yl)phenyl)-2-(trifluoromethyl)benzamide]
- activation of mouse splenocytes (murine IL-6) and human PBMCs (TNF) (mouse splenocytes): activates both human PBMCs and mouse splenocytes

Structure (SMILES): Cc1ccc(-c2cn3cc(F)cnc3n2)cc1NC(=O)C(c1ccccc1)C(C)C (stereo not drawn) [FRF-03-082, N-(5-(6-Fluoroimidazo[1,2-a]pyrimidin-2-yl)-2-methylphenyl)-3-methyl-2-phenylbutanamide]
- TNF (Median) (human adult PBMCs [4]; 33 μM, ELISA, median of N=3-5, no unit in table (FIGS. 6B/7B express TNF concentration in ng/ml)): 1.008
- Activity class (human adult PBMCs [4]; classified according to TNF % vs R848, 33 μM): A (high activity—class A: TNF % >15%)
- TNF % (Median) (human adult PBMCs [4]; median percentage TNF production as compared to R848, 33 μM): 41.65%
